Laboratory results reported in ChEMBL document CHEMBL4673274, “Cytotoxic components from the leaves of Erythrophleum fordii induce human acute leukemia cell apoptosis through caspase 3 activation and PARP cleavage” (Bioorg Med Chem Lett, 2021).
Active and inactive are the calls of the source. The calls are words filed in the database; no cut-off is given here.

Columns and labels:
Type in all cases: functional, cell-based
KG-1 [1] = assay: Cytotoxicity against human KG-1 cells assessed as reduction in cell viability incubated for 48 hrs by CCK-8 assay; conditions: KG-1, 48 h
HL-60 [2] = assay: Cytotoxicity against human HL-60 cells assessed as reduction in cell viability incubated for 48 hrs by CCK-8 assay; conditions: HL-60, 48 h
KG-1 [3] = assay: Induction of apoptosis in human KG-1 cells assessed as caspase 3 activation incubated for 48 hrs by Western blot analysis; conditions: dose 10-30 µM
HL-60 [4] = assay: Induction of apoptosis in human HL-60 cells assessed as increase in Bax expression at 10 to 30 uM incubated for 48 hrs by Western blot analysis; conditions: dose 10-30 µM
KG-1 [5] = assay: Induction of apoptosis in human KG-1 cells assessed as caspase 9 activation incubated for 48 hrs by Western blot analysis; conditions: dose 10-30 µM
HL-60 [6] = assay: Induction of apoptosis in human HL-60 cells assessed as caspase 3 activation incubated for 48 hrs by Western blot analysis; conditions: dose 10-30 µM
HL-60 [7] = assay: Induction of apoptosis in human HL-60 cells assessed as caspase 9 activation incubated for 48 hrs by Western blot analysis; conditions: dose 10-30 µM
KG-1 [8] = assay: Induction of apoptosis in human KG-1 cells assessed as increase in PARP cleavage incubated for 48 hrs by Western blot analysis; conditions: dose 10-30 µM
HL-60 [9] = assay: Induction of apoptosis in human HL-60 cells assessed as increase in PARP cleavage incubated for 48 hrs by Western blot analysis; conditions: dose 10-30 µM
HL-60 [10] = assay: Induction of apoptosis in human HL-60 cells assessed as decrease in Bcl2 expression incubated for 48 hrs by Western blot analysis; conditions: dose 10-30 µM
HL-60 [11] = assay: Induction of apoptosis in human HL-60 cells assessed as increase in Cyt-c expression at 10 to 30 uM incubated for 48 hrs by Western blot analysis; conditions: dose 10-30 µM

| Structure (SMILES) | IC50 (KG-1 [1]) | IC50 (HL-60 [2]) | further results |
| --- | --- | --- | --- |
| ClCCl [METHYLENE CHLORIDE] | 149 µg/mL | 116 µg/mL | – |
| COC(=O)[C@]1(C)[C@@H]2C(=O)[C@H](OC(C)=O)[C@H]3[C@@H](C)/C(=C/C(=O)O)CC[C@@H]3[C@@]2(C)CC[C@@H]1O | 18.6 µM | 15.2 µM | Activity (KG-1 [3]): Dose-dependent effect; Activity (HL-60 [4]): Active; Activity (KG-1 [5]): Dose-dependent effect; Activity (HL-60 [6]): Dose-dependent effect; Activity (HL-60 [7]): Dose-dependent effect; Activity (KG-1 [8]): Dose-dependent effect; Activity (HL-60 [9]): Dose-dependent effect; Activity (HL-60 [10]): Dose-dependent effect; Activity (HL-60 [11]): Active |
| COC(=O)/C=C1\CC[C@H]2[C@@H](C(=O)[C@H](O)[C@@H]3[C@]2(C)CC[C@H](O)[C@]3(C)C(=O)OC)[C@H]1C | > 50 µM | 25.7 µM | – |
| COC(=O)CC1=CC[C@H]2[C@@H](C(=O)[C@H](O)[C@@H]3[C@]2(C)CCC[C@]3(C)C(=O)OC)[C@H]1C | 42.2 µM | 28.5 µM | – |
| COC(=O)[C@]1(C)[C@@H]2[C@@H](O)C(=O)[C@H]3[C@@H](C)/C(=C/C(=O)O)CC[C@@H]3[C@@]2(C)CC[C@@H]1O | > 50 µM | 28.7 µM | – |
| CCCCCC [HEXANE] | – | > 300 µg/mL | – |
| COC(=O)[C@]1(C)[C@@H]2C(=O)[C@H](O)[C@H]3[C@@H](C)/C(=C/C(=O)O)CC[C@@H]3[C@@]2(C)CC[C@@H]1O | 35.7 µM | 24.3 µM | – |
| CC[C@@]1(O)C(=O)OCc2c1cc1n(c2=O)Cc2cc3ccccc3nc2-1 [CAMPTOTHECIN] | 1.6 µM | 1.7 µM | – |
| CCOC(C)=O [ETHYL ACETATE] | > 300 µg/mL | 216 µg/mL | – |
